From patent publication US6627649B1, “Pharmaceutical compositions containing in combination two antagonists selective of arginine-vassopressin V receptors, even of V1 a and V2 receptors” (Sanofi-Synthelabo, priority 1998, dated 2003)

What was measured:
[1] = tested on: normally hydrated conscious rat; assay: water diuresis induced in the normally hydrated conscious rat (urinary volume, osmolality, Na+ and K+ excretion over 24 h); assay type: in vivo, Sprague Dawley male rats; details: for effect on urinary excretion (in words) / effect on urinary excretion of Na+ and K+ ions (in words) / effect on urinary osmolality (in words): oral, over 24 hours
Experimental: Serradeil-Le Gal et al., J. Clin. Invest. 1996, 98, 2729-2738.
The various assays are performed on Sprague Dawley male rats (280+/−20 g) obtained from Iffa Credo (France).
Twenty four hours before the start of the study, the rats were randomized and placed in metabolic cages with food and water ad libitum. They received orally 3 ml/kg of a 0.6% aqueous solution of methylcellulose. The urines were collected over a 24 hour period, i.e. day D-1.
The next morning the rats are treated orally (solvent or products alone or in combination) and returned individually to their metabolic cage for a period of 24 hours with food and water ad libitum. The urines are collected over a period of 24 hours after treatment, i.e. day D-0.
Urinary osmolality and the urinary excretion of Na^+ and K^+ ions are also measured during the 24 hour period before and after treatment. The urinary osmolality is measured with a freezing point depression osmometer (Fisk OS 110 model, Elvetec, Marseille, France) and the urinary concentrations of sodium and potassium are measured with a flame photometer (IL 943, Instruments Laboratories, Marseille, France).
The compounds alone (compound A, compound B) or in combination (compound A+compound B) are suspended in a 0.6% aqueous solution of methylcellulose and administered by gavage in a final volume of 3 ml/kg.
Compound B was used in the form of its dihydrogen phosphate monohydrate salt, the doses indicated are expressed in terms of the base.
The results are expressed in the form of the mean+/−SEM (standard error of the mean). The statistical analysis of the results is performed by means of a two factor variance analysis with repeated measurements of the time factor. The comparison of the means is made with the aid of the Dunnett test for a comparison with respect to a time or group of reference. Only the values of p lower than 5% are considered to be significant (p<0.05).
ASSAY No. 1: Comparative effect on urinary excretion, urinary osmolality and excretion of the Na^+ and K^+ ions in the rat after oral administration of compound A alone, compound B alone and of the combination compound A^+ compound B.
a) Study Performed by Oral Administration of a Fixed Dose of Compound A (30 mg/kg) combined with increasing doses of compound B (0.3, 1 or 3 mg/kg).
b) Study Performed by Oral Administration of a Fixed Dose of Compound B (1 mg/kg) combined with increasing doses of compound A (3,10 or 30 mg/kg).

human V2 receptors = human V2 receptors (Homo sapiens, UniProt P30518); details: cited from earlier work
human V1a receptors = human V1a receptors (Homo sapiens, UniProt P37288); details: various species, in particular human V1a receptors; J. Clin. Invest., 1993, 92 224-231; cited from earlier work
[2] = study a, 0.3 mg/kg oral, D0 0-24 h after treatment
[3] = study a, 0.3 mg/kg oral, D-0 0-24 h after treatment
[4] = study a, 1 mg/kg oral, D0 0-24 h after treatment
[5] = study a, 1 mg/kg oral, D-0 0-24 h after treatment
[6] = study a, 3 mg/kg oral, D0 0-24 h after treatment
[7] = study a, 3 mg/kg oral, D-0 0-24 h after treatment
[8] = study a, group of 0.3 mg/kg oral, D-1 0-24 h, day before treatment (solvent only)
[9] = study a, group of 1 mg/kg oral, D-1 0-24 h, day before treatment (solvent only)
[10] = study a, group of 3 mg/kg oral, D-1 0-24 h, day before treatment (solvent only)
[11] = study a, compound A 30 mg/kg, compound B 0.3, 1 or 3 mg/kg, alone or combined
[12] = study b, 1 mg/kg oral, D0 0-24 h after treatment
[13] = study b, group of 1 mg/kg oral, D-1 0-24 h, day before treatment (solvent only)
[14] = study b, compound B 1 mg/kg alone or combined with compound A 3, 10 or 30 mg/kg
[15] = study a, 30 mg/kg oral, D0 0-24 h after treatment
[16] = study a, 30 mg/kg oral, D-0 0-24 h after treatment
[17] = study a, group of 30 mg/kg oral, D-1 0-24 h, day before treatment (solvent only)
[18] = study b, 30 mg/kg oral, D0 0-24 h after treatment
[19] = study b, group of 30 mg/kg oral, D-1 0-24 h, day before treatment (solvent only)

human V2 receptors, sequence (P30518 whole entry): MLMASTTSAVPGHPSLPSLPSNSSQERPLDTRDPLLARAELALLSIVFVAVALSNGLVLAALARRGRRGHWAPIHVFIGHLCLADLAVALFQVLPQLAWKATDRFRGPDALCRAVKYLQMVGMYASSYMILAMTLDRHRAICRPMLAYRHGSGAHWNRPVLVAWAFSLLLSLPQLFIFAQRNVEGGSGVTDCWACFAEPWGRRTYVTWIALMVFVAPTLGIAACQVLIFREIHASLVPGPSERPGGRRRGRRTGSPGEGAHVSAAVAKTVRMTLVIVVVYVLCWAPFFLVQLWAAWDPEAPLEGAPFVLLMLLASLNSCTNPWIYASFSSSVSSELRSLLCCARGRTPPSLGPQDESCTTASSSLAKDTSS
human V1a receptors, sequence (P37288 whole entry): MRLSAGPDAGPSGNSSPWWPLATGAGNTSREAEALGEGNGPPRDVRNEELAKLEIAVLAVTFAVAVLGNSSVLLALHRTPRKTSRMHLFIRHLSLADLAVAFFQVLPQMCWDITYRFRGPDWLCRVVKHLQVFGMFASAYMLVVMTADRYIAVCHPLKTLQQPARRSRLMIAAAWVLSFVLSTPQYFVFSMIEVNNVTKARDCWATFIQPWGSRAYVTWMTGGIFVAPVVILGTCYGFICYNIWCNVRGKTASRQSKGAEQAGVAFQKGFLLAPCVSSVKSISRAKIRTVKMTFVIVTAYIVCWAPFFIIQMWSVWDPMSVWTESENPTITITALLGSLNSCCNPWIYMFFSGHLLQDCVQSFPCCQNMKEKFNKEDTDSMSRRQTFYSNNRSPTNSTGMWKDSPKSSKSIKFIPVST

CCOc1ccc2c(c1)C1(CCC(OCCN3CCOCC3)CC1)C(=O)N2S(=O)(=O)c1ccc(C(=O)NC(C)(C)C)cc1OC (stereo not drawn) [Compound B, 1-{4-(N-tert-butylcarbamoyl)-2-methoxybenzenesulfonyl}-5-ethoxy-3-spiro{4-(2-morpholino-ethyloxy)cyclohexane}indol-2-one]
urinary excretion of K+ [1, 2]: 2254 µmol | urinary excretion of Na+ [1, 2]: 1668 µmol | Urinary osmolality [1, 3]: 1075 +/− 165^a mOsmol/kg H2O | Urinary volume [1, 3]: 15 ± 2 mL | urinary excretion of K+ [1, 4]: 2334 µmol | urinary excretion of Na+ [1, 4]: 1783 µmol | Urinary osmolality [1, 5]: 618 +/− 27^a mOsmol/kg H2O | Urinary volume [1, 5]: 25 +/− 2.2^a ml | urinary excretion of K+ [1, 6]: 2648 µmol | urinary excretion of Na+ [1, 6]: 2168 µmol | Urinary osmolality [1, 7]: 292 +/− 40^a mOsmol/kg H2O | Urinary volume [1, 7]: 72.9 +/− 11.1^a ml | Urinary osmolality [1, 8]: 1371 +/− 125 mOsmol/kg H2O | Urinary volume [1, 8]: 9.1 ± 0.7 mL | urinary excretion of K+ [1, 8]: 2001 µmol | urinary excretion of Na+ [1, 8]: 1772 µmol | Urinary osmolality [1, 9]: 1376 +/− 99 mOsmol/kg H2O | Urinary volume [1, 9]: 9.1 ± 0.7 mL | urinary excretion of K+ [1, 9]: 2034 µmol | urinary excretion of Na+ [1, 9]: 1840 µmol | Urinary osmolality [1, 10]: 1443 +/− 46 mOsmol/kg H2O | Urinary volume [1, 10]: 9.5 ± 0.6 mL | urinary excretion of K+ [1, 10]: 2022 µmol | urinary excretion of Na+ [1, 10]: 1903 µmol | effect on urinary excretion (in words) [1, 11]: significantly increases | effect on urinary excretion of Na+ and K+ ions (in words) [1, 11]: no effect | effect on urinary osmolality (in words) [1, 11]: significantly diminishes | Urinary osmolality [1, 12]: 616 +/− 51^a mOsmol/kg H2O | Urinary volume [1, 12]: 31.6 +/− 3.5^a ml | urinary excretion of K+ [1, 12]: 2944 µmol | urinary excretion of Na+ [1, 12]: 2203 µmol | Urinary osmolality [1, 13]: 1308 +/− 68 mOsmol/kg H2O | Urinary volume [1, 13]: 11.7 ± 1.5 mL | urinary excretion of K+ [1, 13]: 2519 µmol | urinary excretion of Na+ [1, 13]: 2039 µmol | effect on urinary excretion (in words) [1, 14]: significantly increases | effect on urinary excretion of Na+ and K+ ions (in words) [1, 14]: no effect | effect on urinary osmolality (in words) [1, 14]: significantly diminishes | V2 arginine vasopressin receptor antagonism (in words) (human V2 receptors; various species, in particular human V2 receptors, J. Clin. Invest., 1996, 98, 2729-2738): potent and selective

COc1ccc(S(=O)(=O)N2c3ccc(Cl)cc3[C@](O)(c3ccccc3Cl)[C@@H]2C(=O)N2CCC[C@H]2C(N)=O)cc1OC [Compound A, (2S)-1-{(2R,3S)-5-chloro-3-(2-chlorophenyl)-1-(3,4-dimethoxybenzenesulfonyl)-3-hydroxy-2,3-dihydro-1H-indole-2-carbonyl}pyrrolidine-2-carboxamide]
V1a arginine vasopressin receptor antagonism (in words) (human V1a receptors): potent and selective | urinary excretion of K+ [1, 15]: 2190 µmol | urinary excretion of Na+ [1, 15]: 1668 µmol | Urinary osmolality [1, 16]: 2462 +/− 379^ mOsmol/kg H2O | Urinary volume [1, 16]: 7.3 ± 1.2 mL | Urinary osmolality [1, 17]: 1409 +/− 13 mOsmol/kg H2O | Urinary volume [1, 17]: 10.7 ± 1.1 mL | urinary excretion of K+ [1, 17]: 2265 µmol | urinary excretion of Na+ [1, 17]: 1903 µmol | effect on urinary excretion (in words) [1, 11]: does not modify | effect on urinary excretion of Na+ and K+ ions (in words) [1, 11]: does not alter | effect on urinary osmolality (in words) [1, 11]: does not modify | Urinary osmolality [1, 18]: 2462 +/− 379^ mOsmol/kg H2O | Urinary volume [1, 18]: 7.3 +/− 1.2^ ml | urinary excretion of K+ [1, 18]: 2190 µmol | urinary excretion of Na+ [1, 18]: 1668 µmol | Urinary osmolality [1, 19]: 1409 +/− 13 mOsmol/kg H2O | Urinary volume [1, 19]: 10.7 ± 1.1 mL | urinary excretion of K+ [1, 19]: 2265 µmol | urinary excretion of Na+ [1, 19]: 1903 µmol | affinity for the V2 receptors (in words) (human V2 receptors; literature description): low affinity
